Data on two compounds can be found in publication PMC8357487 (Current Research in Pharmacology and Drug Discovery, 2021).

Data set [1] is described as follows: Cytotoxicity, MTS method, Vero CCL-81. It is filed as cell-based. The note with it: African monkey, Vero CCL-81 cells. Background: Formazan colour is commonly taken as a measure of viable cells.
Data set [2] relates to SARS-CoV-2. Nature of the data set: microbe, parasite or virus in culture. It is filed as cell-based.
In the next data set the test system is icSARS-CoV-2-mNG. Nature of the data set: microbe, parasite or virus in culture. The format is cell-based, SARS-CoV-2. The note with it: for pEC50: Severe acute respiratory syndrome coronavirus 2, Caco-2, 48 h, read-out: mean EC50, icSARS-CoV-2-mNG inhibition assay.
The nature of data set [3]: Cytotoxicity, MTS method, Caco-2. It is filed as cell-based. Conditions: human, Caco-2 cells.
Data set [4] concerns SARS-CoV-2. Conditions: Caco-2 cells; ref Li et al., 2021a; cited from earlier work.
Data set [5] in a line: Cytotoxicity, MTS method, Huh-7. It is filed as cell-based, human. Conditions: human, Huh-7 cells.
Data set [6] in a line: Cytotoxicity, MTS method, Calu-3. The format is cell-based. The note with it: human, Calu-3 cells.
In the next data set the test system is Huh-7 cells. Nature of the data set: Cytotoxicity, MTS method, Huh-7. The format is cell-based, human. The note with it: MTS.
The conditions of data set [7]: monkeys; ref Warren et al., 2016; cited from earlier work.
The conditions of data set [8]: humans; ref Humeniuk et al., 2020; cited from earlier work.
Where [9] appears, read: Severe acute respiratory syndrome coronavirus 2, 48 h.
Where [10] appears, read: Severe acute respiratory syndrome coronavirus 2, Caco-2, 72 h.
Setting [11] is: Severe acute respiratory syndrome coronavirus 2, Calu-3, 72 h.

The structures appear in SMILES notation. pEC50: −log10 of the molar value. Read-outs that look alike come from different tables or passages of the source.

A word on the CC50: it is the concentration at which the toxic effect on the cells reaches its halfway point. Low readings indicate harm at low concentration, high ones better tolerance by the cells. As a reminder, the pEC50 is the negative decadic logarithm of the EC50, by convention in mol/L. The term EC90 denotes the concentration needed for an effect of 90%. Low readings indicate an effect from little substance, high ones a need for much substance. In the case of `N#C[C@@]1(c2ccc3c(N)ncnn23)O[C@H](CO)[C@@H](O)[C@H]1O` [GS-441524], the CC50 in data set [1], in data set [3], in data set [5] and in [6] was above 100000 nM throughout. Further, the pEC50 with SARS-CoV-2 [2] (setting [9]) is 6.10; in the data set with SARS-CoV-2 [2] (setting [10]) it was 7.10; in the data set with SARS-CoV-2 [2] (setting [11]), 6.60; in the data set with icSARS-CoV-2-mNG it was 5.89. Besides, the 90% effect concentration (EC90) in the data set with SARS-CoV-2 [2] (setting [9]) stood at 1600 nM; in the data set with SARS-CoV-2 [2] (setting [10]) it was 1420 nM; with SARS-CoV-2 [2] (setting [11]), 2350 nM. Moreover, in the data set with icSARS-CoV-2-mNG (Caco-2 cells), the “EC50 difference of GS-441524 compared to remdesivir, icSARS-CoV-2-mNG assay” value was 70 fold. In the data set on SARS-CoV-2 [4], the “Difference in EC50 between GS-441524 and remdesivir” value is reported as 6 fold.
Take `CCC(CC)COC(=O)[C@H](C)N[P@](=O)(OC[C@H]1O[C@@](C#N)(c2ccc3c(N)ncnn23)[C@H](O)[C@@H]1O)Oc1ccccc1` [Remdesivir]: the negative logarithm of the EC50 (pEC50) in the data set on SARS-CoV-2 [2] (setting [9]) is 6.15; in the data set on SARS-CoV-2 [2] (setting [10]) it was 9.00; in the data set with SARS-CoV-2 [2] (setting [11]), 6.96; with icSARS-CoV-2-mNG, 7.74. For the same compound, the EC90 with SARS-CoV-2 [2] (setting [9]) worked out at 1700 nM; in the data set on SARS-CoV-2 [2] (setting [10]), 22 nM; in the data set on SARS-CoV-2 [2] (setting [11]) it was 490 nM. Besides, the figures for the CC50 in data set [3], in data set [5] and in [6] were above 100000 nM, 2100 nM and 72800 nM, respectively. The Cytotoxicity in words result in the data set on Huh-7 cells was “quite toxic”. Also, the values for the plasma half-life entry in [7] and in data set [8] were “about 0.4 h” and around 1 h, respectively.
